Our source for the mass density values is the NIST ThermoML archive (doi:10.1016/j.jct.2006.03.003).

± gives the expanded uncertainty stated by the source.

The conditions of data set [1]: 298.15 K; 101.33 kPa; Liquid.
The nature of data set [2]: xn = mol fraction of the nth substance listed. The settings on record: 298.15 K; 101 kPa; Liquid; x1 = 0.61.

With `CC(C)=O` [acetone], the mass density in data set [1] was 784.65 ± 0.31 kg/m3.
As to `CCC(C)=O` [butanone], the mass density in data set [1] amounted to 799.75 ± 0.29 kg/m3.
Turning to `COC(F)(F)C(F)(C(F)(F)F)C(F)(F)F` [methyl nonafluoroisobutyl ether] + COC(F)(F)C(F)(F)C(F)(F)C(F)(F)F, in data set [2], the mass density came to 1516.5 ± 1.8 kg/m3.
Regarding `CCC(=O)CC` [pentan-3-one], the mass density in data set [1] came out at 809.09 ± 0.28 kg/m3.
